This experiment relates to PR8 influenza A virus (influenza/A/PR/8/34 virus). The format is cell-based.

Regarding `Cl.N` [NH4Cl, ammonium chloride], the “CPE in influenza-infected cells, observed with ECIS” value was “Inhibition of CPE in influenza-infected cells”.

(Values after patent US20080233561A1, “Method for Measuring Cytopathic Effect Due to Viral Infection in Cells Using Electric Cell-Substrate Impedance Sensing” (UNIVERSITY OF LOUISVILLE RESEARCH FOUNDATION, INC., priority 2005, published 2008).)
